For one test, the system named is CD8+ T cells. Description: T cell activity in breast tumor micro-environment (flow cytometry). Conditions: 50 μM; for regulation of CD8+ T cells in tumor micro-environment: 20% MDA-MB-231 conditioned medium, 48 hours; for regulation of effector memory CD8+ T cells in tumor micro-environment: CCR7lowCD45RAlow phenotype. The test is classed as cell-based, human. On the procedure: We designed this study to evaluate the effects of IDO1 inhibition on cytotoxic T cells present in the breast tumor micro-environment. To mimic breast tumor micro-environment, we used 20% conditioned medium of human metastatic breast cancer cell line MDA-MB-231 with fresh RPMI and 10% FBS. Freshly isolated PBL cells were stimulated with PMA and ionomycin prior to culture in 20% conditioned medium and compounds at selected concentrations. Drug treatment was done for 48 hours followed by immunophenotyping by flow cytometry. For cell proliferation experiments freshly isolated PBLs were cultured in RPMI with 10% FBS and inhibitors for 48 hours. After that the cells were counted with hemocytometer. All the experiments were repeated thrice before analyzing data. The concentration of the compounds was 50 μM for all the T cell activity studies. All the T cell culture related experiments were conducted in the designated biosafety level facility available at the University of Calcutta.
Peripheral blood lymphocyte was isolated from freshly isolated blood samples of healthy volunteers in a previously described protocol. Briefly, blood was diluted with equal volume of sterile PBS and allowed in density gradient centrifugation over histopaque. Isolated PBLs were washed and cultured in RPMI medium with 10% FBS. Peripheral blood lymphocytes (PBLs) were isolated from fresh blood of healthy volunteers and cultured in RPMI medium with or without compound at selected concentration for 48 hours. Treatment of the compound uplifted cell proliferation. To evaluate whether 4,5-disubstituted 1,2,3-triazole regulate T cell activity, PBL was isolated and cultured at 20% conditioned medium of human metastatic breast cancer cell line MDA-MB-231. To perform this experiment PBL was isolated from three healthy volunteers and three independent experiments were performed. All the volunteers signed informed consent form[45],[49].
The T cells were activated according to standardized protocol published elsewhere. 100 ng/mL PMA and 1 μg/mL ionomycin were used to stimulate the T cells for 2 hrs. PBLs freshly cultured in RPMI with 10% FBS was added in the culture plate at 2 × 10^5 cells/ well and cultured at 37 °C with 5% CO2 for the duration of activation.
After treatment for given period of time the lymphocytes were analyzed for alteration of protein expression by flow cytometry according to previously published protocols. Briefly the cells were pelleted down resuspended in cell staining buffer. After cell counting cells were stained against PE-CD8 (Miltenyi Bioteh.), PerCP-Cy 5.5-CCR-7 (Miltenyi Bioteh.), APC-CD45RA (Miltenyi Bioteh.), VioBright-FITC-PD-1 (Miltenyi Bioteh.) antibodies as per the manufacturer recommended concentration and incubated in ice for given period of time. Post incubation, the cells were washed, suspended in cell staining buffer before data was acquired using FACS-Verse flow cytometer. The results were analyzed with FlowJo software (v X.0.7). The experiments were repeated thrice prior data analysis.
On the technique in general: A flow cytometer gives signals particle by particle.

A further test has as its system EAC solid tumor. Description: EAC solid tumor model in vivo. Further details: species or system female Swiss albino mice. The settings on record: for tumor growth inhibition (TGI): 5 mg/kg body weight, intravenously at alternate days, female Swiss albino mice; for CD8+ T cell population in vivo solid tumors: flow cytometry of tumor tissue post sacrifice. As for the experimental part:
Female Swiss albino mice of age 6 weeks (weight = 20 gm) were selected for the experiments. Animals were housed in animal facility room, Department of Zoology, University of Calcutta at 25 ± 2 °C, relative humidity of nearly 45 ± 5% with alternative 12 hours day/ night cycle with access of food and water. All the experiments were carried out as per guideline of the Committee for the Purpose of Control and Supervision of Experimental Animals (CPCSEA), Government of India (Registration No: 885/GO/Re/S/05/CPCSEA) and approved by the Institutional animal ethical committee (IAEC), University of Calcutta.
Ehrlich ascites carcinoma (EAC) cells were maintained in the ascetic form in female Swiss albino mice by intraperitoneal transplantation every 10th day on each mice. The ascetic fluid was drawn on 7th day on implantation according to previously described protocol. Isolated cells were diluted in sterile PBS. 2 × 10^6 cells were then implanted on thigh muscle of all the animals selected for experiment.
Female Swiss albino mice were divided into four groups (n = 6 each group). Post inoculation of the cells in thigh muscle on day 0 mice in their respective group was allowed to treat for 5 days on every alternate day at treatment of 5 mg/ kg body weight described below. All the mice were sacrificed on day 10.
Tumor tissues post sacrifice were digested in collagenase IV medium for 2 hours. The tissues were passed through wire mesh and single-cell strainer. Then the cells were washed in PBS, and immunophenotyping was performed, and cells were stained against APC-CD8 for finding infiltrated CD8 T cell populations by flow cytometry analysis.

The target of a further test is IDO1 (Homo sapiens, UniProt P14902). The test can be described thus: Equilibrium surface plasmon resonance (SPR) analysis. The settings on record: PBS buffer pH 7.4, triplicate. The test is classed as binding. Set-up: made in house; host or cells: Escherichia coli M15 (pQE30 vector with pREP4 plasmid). On the procedure:
The surface plasmon resonance (SPR) analysis was carried out according to the reported procedure with minor modifications[34],[52]. In brief, the measurements were performed at 25 °C on the Biacore-X100 instrument using CM5 sensor chip (GE Healthcare). PBS buffer at pH 7.4 was used as running buffer. The surface of the CM5 sensor chip was first modified with Anti-His Antibody using amine-coupling kit at a flow rate of 30 µL/ minute, followed by IDO1 enzyme (30 µg/mL) immobilization using His-capture kit at a flow rate of 10 µL/minute for 2 minutes. The IDO1 enzyme capture level was 4000 response units (RU). The binding efficacy (association constant; ka) of the compounds was determined by measuring the change in RU of the SPR sensorgram in absence or presence of the compounds (0 to 50 µM).
Figure S1. Measurements of compound binding affinity of the human IDO1 enzyme by […]
equilibrium SPR analysis.
(D), respectively injected over the biosensor chip surface-immobilized with IDO-1 protein are indicated. PBS buffer at pH 7.4 was used for all measurements. Binding isotherm was generated from the Req (average of triplicate measurements) versus the concentration of […] plot. Kd values determined by nonlinear least-squares analysis of the isotherm using the following equation: Req = Rmax/(1 + Kd/P).
Table S3. IDO1 binding affinity of various compounds determined from equilibrium SPR […]
(1 picture or pasted object on this page, not shown here)
Background: In SPR one partner is held on a chip, and binding of the other changes the refractive index at the surface.

Several values for one entry are separate records, joined by “and”; a condition that tells them apart may be missing. Equal entries are not always repeated.

We go through four molecules from paper PMC6895048, “4,5-Disubstituted 1,2,3-triazoles: Effective Inhibition of Indoleamine 2,3-Dioxygenase 1 Enzyme Regulates T cell Activity and Mitigates Tumor Growth” (Scientific Reports, 2019).

Sequence of IDO1 (P14902 whole entry): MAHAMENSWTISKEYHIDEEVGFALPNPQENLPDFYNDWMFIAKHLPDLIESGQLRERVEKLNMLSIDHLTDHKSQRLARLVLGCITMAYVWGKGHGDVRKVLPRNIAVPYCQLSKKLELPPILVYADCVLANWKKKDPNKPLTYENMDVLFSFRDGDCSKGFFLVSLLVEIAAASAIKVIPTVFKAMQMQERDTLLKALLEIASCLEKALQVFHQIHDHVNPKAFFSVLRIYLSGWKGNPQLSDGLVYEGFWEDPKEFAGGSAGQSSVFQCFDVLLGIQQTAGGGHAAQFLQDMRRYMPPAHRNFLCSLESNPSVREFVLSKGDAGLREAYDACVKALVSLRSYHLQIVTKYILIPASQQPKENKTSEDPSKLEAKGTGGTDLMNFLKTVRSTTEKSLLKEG

What is called Kd is the equilibrium constant for the complex coming apart. The low end stands for a tighter complex, the high end for a looser complex. Regarding `NC(=O)c1n[nH]nc1-c1ccc(F)c(F)c1` [Compound 3i], in the test with CD8+ T cells, the “PD-1 expression on CD8+ T cells in tumor micro-environment” value (shortened to “PD-1 expression on CD8+ T cells”) is reported as “Down-regulation”, the “regulation of CD8+ T cells in tumor micro-environment” value (shortened to “regulation of CD8+ T cells”) is “Up-regulation” and the “regulation of effector memory CD8+ T cells in tumor micro-environment” value is “Up-regulation”. For the same molecule, in the test on EAC solid tumor, the “tumor growth inhibition (TGI)” value is 79–96% and 96%; the “CD8+ T cell population in vivo solid tumors” value (from here on “CD8+ T cell population”) is listed as “induces CD8+ T cell population”. The molecule also had a Kd on IDO1 of 34.5 ± 5.21 µM.
Consider `NS(=O)(=O)NCCNC(=O)c1n[nH]nc1-c1ccc(F)c(F)c1` [Compound 4k], for which, in the test with CD8+ T cells, the “PD-1 expression on CD8+ T cells” value is on record as “Down-regulation”, the “regulation of CD8+ T cells” value is reported as “Up-regulation” and the “regulation of effector memory CD8+ T cells in tumor micro-environment” value is listed as “Up-regulation”. For the same molecule, in the test on EAC solid tumor, the “tumor growth inhibition (TGI)” value is recorded as 79–96% and the “CD8+ T cell population” value is listed as “induces CD8+ T cell population”. Binding on IDO1 was put at a Kd of 49.1 ± 8.51 µM.
For the molecule `O=C(N/C(Cc1ccc(O)cc1)=N\O)c1n[nH]nc1-c1ccc(F)c(F)c1` [Compound 4i], in the test on CD8+ T cells, the “PD-1 expression on CD8+ T cells” value is given as “Down-regulation”, the “regulation of CD8+ T cells” value was “Up-regulation” and the “regulation of effector memory CD8+ T cells in tumor micro-environment” value was “Up-regulation”. Further, in the test with EAC solid tumor, the “tumor growth inhibition (TGI)” value is 79–96% and the “CD8+ T cell population” value is recorded as “induces CD8+ T cell population”. The molecule also had a Kd at IDO1 of 40.2 ± 4.99 µM.
Turning to `CCOC(=O)c1n[nH]nc1-c1ccc(F)c(F)c1` [Compound 2i], in the test on CD8+ T cells, the “PD-1 expression on CD8+ T cells” value is “Down-regulation”, the “regulation of CD8+ T cells” value is recorded as “Up-regulation” and the “regulation of effector memory CD8+ T cells in tumor micro-environment” value is “Up-regulation”. The Kd on IDO1 came out at 61.7 ± 6.07 µM.
